Drawing on US9593149B2, “Amylin and calcitonin receptor agonist” (Novo Nordisk A/S, priority 2014, dated 2017), this text covers solubility and EC50 for 1 molecule.

A short description of data set [1]: Assay (IV) determination of solubility. It counts as physicochemical. As for the experimental part:
Assay (IV)—Determination of Solubility
The mimylin peptide was dissolved in water at ˜500 nmol/ml and mixed 1:1 with a series of buffers (100 mM glycylglycine pH 3.0, 100 mM glycylglycine pH 4.0, 100 mM glycylglycine pH 5.0, 100 mM bistrispropane pH 6.0, 100 mM bistrispropane pH 6.5, 100 mM bistrispropane pH 7.0, 100 mM bistrispropane pH 7.5, 100 mM bistrispropane pH 8.0).

Data set [2] deals with T1, human calcitonin (a) receptor, BHK570 cells (Homo sapiens, UniProt P30988).
T1 construct: host or cells: BHK570
T1 sequence (P30988 25-474): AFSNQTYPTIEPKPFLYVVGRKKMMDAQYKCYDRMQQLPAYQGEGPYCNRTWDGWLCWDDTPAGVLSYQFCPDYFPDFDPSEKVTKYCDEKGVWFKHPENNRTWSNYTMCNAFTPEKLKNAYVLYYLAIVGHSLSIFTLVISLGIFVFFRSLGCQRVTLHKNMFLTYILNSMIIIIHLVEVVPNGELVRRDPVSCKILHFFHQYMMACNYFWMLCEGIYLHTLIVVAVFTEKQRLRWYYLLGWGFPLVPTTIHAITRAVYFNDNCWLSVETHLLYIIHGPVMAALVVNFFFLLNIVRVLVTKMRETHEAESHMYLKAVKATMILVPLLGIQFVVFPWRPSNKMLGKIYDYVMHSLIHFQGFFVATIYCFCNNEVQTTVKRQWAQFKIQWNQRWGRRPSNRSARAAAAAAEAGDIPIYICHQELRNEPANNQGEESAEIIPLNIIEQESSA
Briefly: Assay (II)a functional CRE-luciferase assay with albumin, human calcitonin receptor. The data set is classed as cell-based. The following applies: Tested with HSA; read-out: hCTR funct. EC50. From the text:
(§1) Assay(II)a—Human Calcitonin and Amylin Receptor Assay
(§2) 1. Luciferase Assay Outline
(§3) Activation of calcitonin and amylin (co-expression of calcitonin receptor and receptor activity modifying proteins (RAMP)) receptors lead to increased intracellular concentrations of cAMP. Consequently, transcription is activated by promoters containing multiple copies of the cAMP response element (CRE). It is thus possible to measure amylin activity by the use of a CRE luciferase reporter gene introduced into BHK cells also expressing calcitonin or amylin receptors.
(§4) 2. Construction of Calcitonin (a)—and Amylin 3(a)—Receptor/CRE-Luc Cell Line.
(§5) A BHK570 cell line was stably transfected with the human calcitonin receptor and a CRE-responsive luciferase reporter gene. The cell line was further transfected with RAMP-3, using standard methods. This turns the calcitonin receptor into an amylin 3(a) receptor. Methotrexate, Neomycin, and Hygromycin are selection markers for luciferase, the calcitonin receptor, and RAMP-3, respectively.
(§6) To perform activity assays, BHK calcitonin (a) receptor- or amylin 3(a)-receptor/CRE-luc cells were seeded in white 96 well culture plates at a density of about 20.000 cells/well. […] After incubation overnight at 37° C. and 5% CO2, the growth medium was replaced by 50 μl/well assay medium (DMEM (without phenol red), Glutamax™, 10% FBS, and 10 mM Hepes, pH 7.4). Further, 50 μl/well of standard or sample in assay buffer were added.
(§7) After 3 hours incubation at 37° C. and 5% CO2, the assay medium with standard or sample were removed and replaced by 100 μl/well PBS. Further, 100 μl/well LucLite™ was added. The plates were sealed and incubated at room temperature for 30 minutes. Finally, luminescence was tested on a TopCounter (Packard) in SPC (single photon counting) mode.

Data set [3] has as its target T2, human amylin 3(a) receptor (human calcitonin receptor + RAMP-3), BHK570 cells (Homo sapiens, UniProt O60896+P30988).
T2 construct: host or cells: BHK570
Briefly: Assay (II)b functional CRE-luciferase assay without albumin, human amylin receptor. It counts as cell-based. The following applies: Tested without HSA; read-out: hAmylin-R funct. EC50. The procedure, abridged: (§8)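 BHK570 cells stably expressing human calcitonin receptor with CRE-luciferase reporter, plus RAMP-3 for the amylin 3(a) line. Cells stimulated 3 hours at 37 °C in albumin-free assay medium (0.1% ovalbumin, 10 mM Hepes pH 7.4); cAMP-driven luciferase read by luminescence.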

Data set [4] concerns the target T2, human amylin 3(a) receptor (human calcitonin receptor + RAMP-3), BHK570 cells. The data set is described as follows: Assay (II)a functional CRE-luciferase assay with albumin, human amylin receptor. It counts as cell-based. Particulars: Tested with HSA; read-out: hAmylin-R funct. EC50.
Excerpt: as §1, §2, §3, §4, §5, §6, §7

Data set [5] concerns the target T1, human calcitonin (a) receptor, BHK570 cells. Briefly: Assay (II)b functional CRE-luciferase assay without albumin, human calcitonin receptor. The data set is classed as cell-based. The following applies: Tested without HSA; read-out: hCTR funct. EC50. The essentials:
as §8

Numbered stars: 1 amine (or outer) side, 2 acyl side, 3 side chain; on linkers, the order of the positions; unused ones are H or OH. Peptide text beside a SMILES is read from it. * marks the point of attachment. C18 diacid = O=C(O)CCCCCCCCCCCCCCCCC(=O)*; γGlu = O=C(O)[C@H](CCC(=O)[*:2])N[*:1]

T2 sequence (O60896 24-148, one chain of several): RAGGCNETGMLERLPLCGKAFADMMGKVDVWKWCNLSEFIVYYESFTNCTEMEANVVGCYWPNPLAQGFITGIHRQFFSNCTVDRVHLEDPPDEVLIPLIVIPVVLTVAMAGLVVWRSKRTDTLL

For orientation: solubility means how much of the substance goes into solution per volume. Higher therefore signals much dissolved substance. Usually EC50 stands for the concentration needed to bring the measured effect to its halfway point. As for `CC(C)C[C@H](NC(=O)[C@H](C)NC(=O)[C@H](C)NC(=O)[C@@H](NC(=O)[C@H](CO)NC(=O)[C@H](CC(C)C)NC(=O)[C@H](CCC(=O)O)NC(=O)[C@H](CO)NC(=O)[C@H](C)NC(=O)CC[C@H](NC(=O)CCCCCCCCCCCCCCCCC(=O)O)C(=O)O)[C@@H](C)O)C(=O)NCC(=O)N[C@@H](CCCNC(=N)N)C(=O)N[C@@H](CC(C)C)C(=O)N[C@@H](CO)C(=O)N[C@@H](C)C(=O)N[C@@H](CCC(=O)O)C(=O)N[C@@H](CC(C)C)C(=O)N[C@@H](Cc1c[nH]cn1)C(=O)N[C@@H](CCC(=O)O)C(=O)N[C@@H](CC(C)C)C(=O)N[C@@H](C)C(=O)N[C@H](C(=O)N[C@@H](Cc1ccc(O)cc1)C(=O)N1CCC[C@H]1C(=O)N[C@@H](CCCNC(=N)N)C(=O)N[C@H](C(=O)N[C@@H](CCC(=O)O)C(=O)N[C@H](C(=O)NCC(=O)N[C@@H](CO)C(=O)NCC(=O)N[C@@H](CO)C(=O)N1CCC[C@H]1C(N)=O)[C@@H](C)O)[C@@H](C)O)[C@@H](C)O` [compound 58, [N-terminal(C18 diacid-gGlu), des1, 23Y, 30S, 31G]mimylin] ({C18 diacid-γGlu}-ASELSTAALGRLSAELHELATYPRTETGSGSP-NH2), the solubility at 18 h in data set [1] (bistrispropane buffer, pH 6.5) was not below 200 µM; in data set [1] (bistrispropane buffer, pH 7.5), not below 200 µM; in data set [1] (bistrispropane buffer, pH 6.0) it was not below 200 µM; in data set [1] (bistrispropane buffer, pH 7.0), not below 200 µM; in data set [1] (bistrispropane buffer, pH 8.0), not below 200 µM; in data set [1] (glycylglycine buffer, pH 3.0), not below 200 µM. Besides, the solubility at 18 h in data set [1] (glycylglycine buffer, pH 4.0) is not below 200 µM; in data set [1] (glycylglycine buffer, pH 5.0) it was not below 200 µM. The EC50 in data set [2] is 15 pM; in data set [3], 10 pM; in data set [4], 24 pM; in data set [5], 10 pM.
